In the supplement of paper PMC7287046:

Tests used:
Conditions in all cases: exposure time: 72 h
U251 [1] = test system: U251
Experimental: (§1)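 Glioma cell lines and primary cultures were treated with single drugs in a nine-step threefold dilution series, about 72 h. Viability was read by CellTiter-Glo and normalised to untreated controls. Absolute IC50 was fitted in GraphPad Prism; values beyond the tested dose range are censored at the block's top or lowest dose.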

AM38 [2] = test system: AM38
Experimental: as §1

SNB75 [3] = test system: SNB75
Experimental: as §1

SF539 [4] = test system: SF539
Experimental: as §1

SF268 [5] = test system: SF268
Experimental: as §1

U118 [6] = test system: U118
Experimental: as §1

T98 [7] = test system: T98
Experimental: as §1

U87 [8] = test system: U87
Experimental: as §1

KNS42 [9] = test system: KNS42
Experimental: as §1

CAS-1 = test system: CAS-1
Experimental: as §1

T98G [10] = test: Loewe synergy score (Combenefit); higher = more synergy; extreme values may be limits of the assay
In short: (§2)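 Pairs of drugs were tested on glioma cell lines as 6 × 6 matrices in 96-well plates. Each drug was given in twofold dilutions topped at its own IC50, added 24 h after plating, with an untreated control repeated sixfold. Three days later, viability was read by CellTiter-Glo as percent of DMSO controls, at least in triplicate. Loewe, Bliss and highest single agent synergy scores were computed in Combenefit from the normalised matrices.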

AM-38 [11] = test: as above
In short: as §2

U251 [12] = test: as above
In short: as §2

SNB75 [13] = test: as above
In short: as §2

SF539 [14] = test: as above
In short: as §2

SF268 [15] = test: as above
In short: as §2

U118 [16] = test: as above
In short: as §2

U87 [17] = test: as above
In short: as §2

KNS-42 [18] = test: as above
In short: as §2

T98G [19] = test: Bliss synergy score (Combenefit); higher = more synergy; extreme values may be limits of the assay
In short: as §2

AM-38 [20] = test: as above
In short: as §2

U251 [21] = test: as above
In short: as §2

SNB75 [22] = test: as above
In short: as §2

SF539 [23] = test: as above
In short: as §2

SF268 [24] = test: as above
In short: as §2

U118 [25] = test: as above
In short: as §2

U87 [26] = test: as above
In short: as §2

KNS-42 [27] = test: as above
In short: as §2

U251 [28] = test: Chou-Talalay combination index (dimensionless); higher = less synergy (more antagonism)
In short: (§3)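 Glioma cell lines went into 96-well plates at optimal density, with low-adhesion plates used for primary cultures, and 24 h later received a 6 × 6 matrix of two drugs in twofold dilutions plus an untreated control repeated sixfold. Each drug's top concentration matched its single-drug IC50. CellTiter-Glo readings, at least in triplicate, were taken three days later. Viability was expressed as percent of DMSO controls, and the Chou–Talalay combination index came from single and combined viabilities by the median effect principle.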

AM38 [29] = test: as above
In short: as §3

SNB75 [30] = test: as above
In short: as §3

SF539 [31] = test: as above
In short: as §3

SF268 [32] = test: as above
In short: as §3

U118 [33] = test: as above
In short: as §3

T98 [34] = test: as above
In short: as §3

U87 [35] = test: as above
In short: as §3

KNS42 [36] = test: as above
In short: as §3

T98G [37] = test: HSA synergy score (Combenefit); higher = more synergy
In short: as §2

AM-38 [38] = test: as above
In short: as §2

U251 [39] = test: as above
In short: as §2

SNB75 [40] = test: as above
In short: as §2

SF539 [41] = test: as above
In short: as §2

SF268 [42] = test: as above
In short: as §2

U118 [43] = test: as above
In short: as §2

U87 [44] = test: as above
In short: as §2

KNS-42 [45] = test: as above
In short: as §2

In the case of N#CC(c1ccnc(NCCc2cccnc2)n1)c1nc2ccccc2s1 (centres undefined), the “IC50 (absolute, viability)” value (U251 [1]) was 11.3 µM, the “IC50 (absolute, viability)” value (AM38 [2]) was 10 µM and the “IC50 (absolute, viability)” value (SNB75 [3]) was 13.1 µM. The “IC50 (absolute, viability)” value (SF539 [4]) was 3.71 µM, the “IC50 (absolute, viability)” value (SF268 [5]) was 7.05 µM and the “IC50 (absolute, viability)” value (U118 [6]) was 20.1 µM. The “IC50 (absolute, viability)” value (T98 [7]) was 7.19 µM, the “IC50 (absolute, viability)” value (U87 [8]) was 24.5 µM and the “IC50 (absolute, viability)” value (KNS42 [9]) was 27.3 µM.

C#Cc1cccc(Nc2ncnc3cc(OCCOC)c(OCCOC)cc23)c1 [Erlotinib] was tested, and the “IC50 (absolute, viability)” value (CAS-1) was > 50 µM, the “IC50 (absolute, viability)” value (AM38 [2]) was 27.8 µM and the “IC50 (absolute, viability)” value (SNB75 [3]) was 15 µM. For the same compound, the “IC50 (absolute, viability)” value (SF539 [4]) was 25 µM, the “IC50 (absolute, viability)” value (SF268 [5]) was 38.1 µM and the “IC50 (absolute, viability)” value (U118 [6]) was 35.5 µM. For the same compound, the “IC50 (absolute, viability)” value (T98 [7]) was 27.5 µM, the “IC50 (absolute, viability)” value (U87 [8]) was 11.6 µM and the “IC50 (absolute, viability)” value (KNS42 [9]) was 27.2 µM.

CO[C@H]1C[C@@H]2CC[C@@H](C)[C@@](O)(O2)C(=O)C(=O)N2CCCC[C@H]2C(=O)O[C@H]([C@H](C)C[C@@H]2CC[C@@H](O)[C@H](OC)C2)CC(=O)[C@H](C)/C=C(\C)[C@@H](O)[C@@H](OC)C(=O)[C@H](C)C[C@H](C)/C=C/C=C/C=C/1C [Rapamycin] was tested, and the “IC50 (absolute, viability)” value (AM38 [2]) was < 0.00302 µM, the “IC50 (absolute, viability)” value (SNB75 [3]) was > 6.6 µM and the “IC50 (absolute, viability)” value (SF539 [4]) was < 0.00302 µM. The “IC50 (absolute, viability)” value (U118 [6]) was > 6.6 µM, the “IC50 (absolute, viability)” value (T98 [7]) was < 0.00302 µM and the “IC50 (absolute, viability)” value (KNS42 [9]) was > 6.6 µM.

With C[C@@H](Oc1cc(-c2cnn(C3CCNCC3)c2)cnc1N)c1c(Cl)ccc(F)c1Cl [Crizotinib] the “IC50 (absolute, viability)” value (CAS-1) was > 50 µM, the “IC50 (absolute, viability)” value (U251 [1]) was 0.33 µM and the “IC50 (absolute, viability)” value (SF539 [4]) was < 0.0229 µM. The “IC50 (absolute, viability)” value (SF268 [5]) was 0.0296 µM, the “IC50 (absolute, viability)” value (U118 [6]) was < 0.0229 µM and the “IC50 (absolute, viability)” value (T98 [7]) was 1.88 µM. For the same compound, the “IC50 (absolute, viability)” value (U87 [8]) was 3.63 µM and the “IC50 (absolute, viability)” value (KNS42 [9]) was 25 µM.

CC(=O)O[C@@]12CO[C@@H]1C[C@H](O)[C@@]1(C)C(=O)[C@H](O)C3=C(C)[C@@H](OC(=O)[C@H](O)[C@@H](NC(=O)OC(C)(C)C)c4ccccc4)C[C@@](O)([C@@H](OC(=O)c4ccccc4)[C@H]21)C3(C)C [Docetaxel] + C#Cc1cccc(Nc2ncnc3cc(OCCOC)c(OCCOC)cc23)c1 [Erlotinib] showed a Loewe synergy score (T98G [10]) of 8.54, a Loewe synergy score (AM-38 [11]) of 0 and a Loewe synergy score (U251 [12]) of 5.05. The Loewe synergy score (SNB75 [13]) was 5.52, the Loewe synergy score (SF539 [14]) was 1.4 and the Loewe synergy score (SF268 [15]) was 5.33. It also gave a Loewe synergy score (U118 [16]) of 0.504, a Loewe synergy score (U87 [17]) of 0.182 and a Loewe synergy score (KNS-42 [18]) of 7.84. It also gave a Bliss synergy score (T98G [19]) of 0.0594, a Bliss synergy score (AM-38 [20]) of 0 and a Bliss synergy score (U251 [21]) of 2.48. The Bliss synergy score (SNB75 [22]) was 4.1, the Bliss synergy score (SF539 [23]) was 0 and the Bliss synergy score (SF268 [24]) was 0.0561. The Bliss synergy score (U118 [25]) was 0.59, the Bliss synergy score (U87 [26]) was 0 and the Bliss synergy score (KNS-42 [27]) was 2.96. The Chou-Talalay combination index (U251 [28]) was 0.678, the Chou-Talalay combination index (AM38 [29]) was 0.962 and the Chou-Talalay combination index (SNB75 [30]) was 0.781. It also gave a Chou-Talalay combination index (SF539 [31]) of 0.998, a Chou-Talalay combination index (SF268 [32]) of 0.934 and a Chou-Talalay combination index (U118 [33]) of 0.956. For the same compound, the Chou-Talalay combination index (T98 [34]) was 0.713, the Chou-Talalay combination index (U87 [35]) was 1.1 and the Chou-Talalay combination index (KNS42 [36]) was 0.834. For the same compound, the HSA synergy score (T98G [37]) was 9.15, the HSA synergy score (AM-38 [38]) was 0 and the HSA synergy score (U251 [39]) was 5.05. For the same compound, the HSA synergy score (SNB75 [40]) was 5.52, the HSA synergy score (SF539 [41]) was 2.49 and the HSA synergy score (SF268 [42]) was 9.27. For the same compound, the HSA synergy score (U118 [43]) was 6.82, the HSA synergy score (U87 [44]) was 3.14 and the HSA synergy score (KNS-42 [45]) was 7.84.

With CO[C@H]1C[C@@H]2CC[C@@H](C)[C@@](O)(O2)C(=O)C(=O)N2CCCC[C@H]2C(=O)O[C@H]([C@H](C)C[C@@H]2CC[C@@H](O)[C@H](OC)C2)CC(=O)[C@H](C)/C=C(\C)[C@@H](O)[C@@H](OC)C(=O)[C@H](C)C[C@H](C)/C=C/C=C/C=C/1C [Rapamycin] + Cc1cc([C@@H](C)Nc2ccccc2C(=O)O)c2nc(N3CCOCC3)cc(=O)n2c1 [AZD6482] the Loewe synergy score (T98G [10]) was 12, the Loewe synergy score (AM-38 [11]) was 9.55 and the Loewe synergy score (U251 [12]) was 1.43. The Loewe synergy score (SNB75 [13]) was 21.8, the Loewe synergy score (SF539 [14]) was 5.95 and the Loewe synergy score (SF268 [15]) was 3.35. For the same compound, the Loewe synergy score (U118 [16]) was 2.56, the Loewe synergy score (U87 [17]) was 0 and the Loewe synergy score (KNS-42 [18]) was 2.6. It also gave a Bliss synergy score (T98G [19]) of 0.59, a Bliss synergy score (AM-38 [20]) of 1.1 and a Bliss synergy score (U251 [21]) of 1.43. It also gave a Bliss synergy score (SNB75 [22]) of 3.78, a Bliss synergy score (SF539 [23]) of 0 and a Bliss synergy score (SF268 [24]) of 0.00824. It also gave a Bliss synergy score (U118 [25]) of 0, a Bliss synergy score (U87 [26]) of 0 and a Bliss synergy score (KNS-42 [27]) of 1.42. It also gave a Chou-Talalay combination index (U251 [28]) of 0.927, a Chou-Talalay combination index (AM38 [29]) of 0.643 and a Chou-Talalay combination index (SNB75 [30]) of 0.75. For the same compound, the Chou-Talalay combination index (SF539 [31]) was 1.05, the Chou-Talalay combination index (SF268 [32]) was 1.02 and the Chou-Talalay combination index (U118 [33]) was 1.16. The Chou-Talalay combination index (T98 [34]) was 0.924, the Chou-Talalay combination index (U87 [35]) was 0.974 and the Chou-Talalay combination index (KNS42 [36]) was 0.912. For the same compound, the HSA synergy score (T98G [37]) was 14.4, the HSA synergy score (AM-38 [38]) was 12.4 and the HSA synergy score (U251 [39]) was 1.43. It also gave an HSA synergy score (SNB75 [40]) of 25.2, an HSA synergy score (SF539 [41]) of 6.85 and an HSA synergy score (SF268 [42]) of 3.85. It also gave an HSA synergy score (U118 [43]) of 3.28, an HSA synergy score (U87 [44]) of 0 and an HSA synergy score (KNS-42 [45]) of 2.6.
